From ChEMBL document CHEMBL1201862, “PubChem BioAssay data set” (2004)
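These data come from cells grown in 96-well plates and exposed to compound for 48 hours at five concentrations. Here, GI50 denotes the concentration required for 50% inhibition of growth.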 The source made the active and inactive calls. Cut-off read from the data, not from the text of the source: active = GI50 up to about 1.1 µM and inactive = higher.

What was measured:
Assay in all cases: NCI tumour cell line growth inhibition, 48 h
CCRF-CEM = test system: CCRF-CEM
DMS-273 = test system: DMS-273
EKVX = test system: EKVX
HOP-62 = test system: HOP-62
HT-29 = test system: HT-29
Malme-3M = test system: Malme-3M
NCI-H226 = test system: NCI-H226
NCI-H23 = test system: NCI-H23
NCI-H460 = test system: NCI-H460
OVCAR-8 = test system: OVCAR-8
SF-295 = test system: SF-295
SK-MEL-28 = test system: SK-MEL-28
SNB-19 = test system: SNB-19
UACC-62 = test system: UACC-62
HCT-116 = test system: HCT-116
HOP-92 = test system: HOP-92
OVCAR-4 = test system: OVCAR-4
OVCAR-5 = test system: OVCAR-5
SR = test system: SR
DU-145 = test system: DU-145

Measured: GI50

Cc1ccc([N+](=O)[O-])cc1NC(=O)c1cccc([N+](=O)[O-])c1O
inactive: CCRF-CEM 18.2 µM | DMS-273 11.9 µM | EKVX 21.2 µM | HOP-62 7.96 µM | HT-29 20.1 µM | Malme-3M 5.09 µM | NCI-H226 13.6 µM | NCI-H23 12.3 µM | NCI-H460 12.2 µM | OVCAR-8 23 µM | SF-295 18 µM | SK-MEL-28 11.5 µM | SNB-19 14.1 µM | UACC-62 3.85 µM

Nc1nnc2nc(CC(=O)/C=C/c3ccccc3)c(=O)[nH]n12
inactive: CCRF-CEM > 100 µM | DMS-273 > 100 µM | EKVX > 100 µM | HCT-116 > 100 µM | HOP-62 > 100 µM | HOP-92 > 100 µM | HT-29 > 100 µM | Malme-3M > 100 µM | NCI-H226 > 100 µM | NCI-H23 > 100 µM | NCI-H460 > 100 µM | OVCAR-4 > 100 µM | OVCAR-5 > 100 µM | OVCAR-8 > 100 µM | SF-295 > 100 µM | SK-MEL-28 > 100 µM | SNB-19 > 100 µM | UACC-62 > 100 µM

CN(C)CCNC(=O)c1cccc2ccc(-c3cccnc3)nc12
inactive: CCRF-CEM 6.4 µM | DMS-273 3.35 µM | EKVX 4.47 µM | HCT-116 3.24 µM | HOP-62 5.57 µM | HOP-92 4.39 µM | HT-29 4.78 µM | Malme-3M 5.41 µM | NCI-H226 6.84 µM | NCI-H23 4.39 µM | NCI-H460 2.94 µM | OVCAR-4 8.24 µM | OVCAR-5 3.87 µM | OVCAR-8 4.3 µM | SF-295 5.69 µM | SK-MEL-28 11.6 µM | SNB-19 4.14 µM | UACC-62 4.73 µM

Cn1c(=O)c(NC(=O)C(Cl)(Cl)Cl)nc2ccccc21
inactive: CCRF-CEM > 100 µM | DMS-273 > 100 µM | EKVX 54.5 µM | HCT-116 > 100 µM | HOP-62 > 100 µM | HT-29 > 100 µM | Malme-3M > 100 µM | NCI-H226 81.8 µM | NCI-H23 > 100 µM | NCI-H460 > 100 µM | OVCAR-8 > 100 µM | SF-295 > 100 µM | SK-MEL-28 > 100 µM | SNB-19 > 100 µM | UACC-62 > 100 µM

COc1cc2cc[n+](C)c(Cc3ccccc3)c2cc1OC
inactive: CCRF-CEM > 100 µM | DMS-273 > 100 µM | EKVX > 100 µM | HCT-116 > 100 µM | HOP-92 96.6 µM | HT-29 > 100 µM | Malme-3M > 100 µM | NCI-H226 > 100 µM | NCI-H23 > 100 µM | NCI-H460 > 100 µM | OVCAR-4 > 100 µM | OVCAR-5 > 100 µM | OVCAR-8 > 100 µM | SF-295 > 100 µM | SK-MEL-28 > 100 µM | SNB-19 > 100 µM | UACC-62 > 100 µM

CC1CCc2c(sc3ncnc(N/N=C/c4ccc(Cl)cc4)c23)C1 (stereo unspecified)
inactive: CCRF-CEM > 10 µM | DMS-273 37.4 µM | EKVX 20.1 µM | HCT-116 19.3 µM | HOP-62 41.9 µM | HT-29 38.5 µM | Malme-3M > 100 µM | NCI-H226 11.7 µM | NCI-H23 32.8 µM | NCI-H460 29.4 µM | OVCAR-5 > 100 µM | OVCAR-8 31.4 µM | SF-295 29.8 µM | SK-MEL-28 32.3 µM | SNB-19 30.1 µM | SR 21.6 µM | UACC-62 31.1 µM

CC(=O)O[C@]12CCCCCCC1C1(O)C(O)CCC[C@H]12 (stereo partly specified)
inactive: CCRF-CEM > 100 µM | DMS-273 > 100 µM | EKVX > 100 µM | HCT-116 > 100 µM | HOP-62 > 100 µM | HT-29 > 100 µM | Malme-3M > 100 µM | NCI-H226 > 100 µM | NCI-H23 > 100 µM | NCI-H460 > 100 µM | OVCAR-4 > 100 µM | OVCAR-8 > 100 µM | SF-295 > 100 µM | SK-MEL-28 > 100 µM | SNB-19 > 100 µM | SR > 100 µM | UACC-62 > 100 µM

CC1=NN(C(=O)c2cc(Cl)cc([N+](=O)[O-])c2)C(=O)C1/N=N/c1ccccc1C(=O)O (stereo unspecified)
inactive: CCRF-CEM > 100 µM | DMS-273 > 100 µM | EKVX > 100 µM | HCT-116 > 100 µM | HT-29 > 100 µM | Malme-3M > 100 µM | NCI-H226 > 100 µM | NCI-H23 > 100 µM | NCI-H460 > 100 µM | OVCAR-5 > 100 µM | OVCAR-8 > 100 µM | SF-295 > 100 µM | SK-MEL-28 > 100 µM | SNB-19 > 100 µM | SR > 100 µM | UACC-62 69.5 µM

O=C(Nc1c(-c2nc3ccccc3[nH]2)sc(=S)n1-c1ccccc1)c1ccccc1
inactive: CCRF-CEM > 100 µM | DMS-273 91.8 µM | EKVX > 100 µM | HOP-62 56.1 µM | HT-29 > 100 µM | Malme-3M > 100 µM | NCI-H226 24.5 µM | NCI-H23 > 100 µM | OVCAR-4 > 10 µM | OVCAR-5 > 100 µM | OVCAR-8 88.9 µM | SF-295 97.5 µM | SK-MEL-28 > 100 µM | SNB-19 82 µM | UACC-62 > 100 µM

CCOC(=O)CCc1c(C)c2c(OC(C)=O)cc(OC(C)=O)cc2oc1=O
inactive: DMS-273 35 µM | EKVX 58.3 µM | HCT-116 62.1 µM | HOP-62 > 100 µM | HOP-92 6.9 µM | HT-29 35.6 µM | Malme-3M 20.7 µM | NCI-H226 > 10 µM | NCI-H23 44.8 µM | NCI-H460 32.5 µM | OVCAR-4 42 µM | OVCAR-5 > 100 µM | OVCAR-8 69.3 µM | SF-295 56.5 µM | SK-MEL-28 42 µM | SNB-19 65.9 µM

CC1CC2CCCC(=O)C2=C(O)O1 (stereo unspecified)
inactive: CCRF-CEM > 100 µM | DU-145 > 100 µM | EKVX 86.7 µM | HCT-116 > 100 µM | HOP-62 > 100 µM | HOP-92 > 100 µM | HT-29 > 100 µM | Malme-3M > 100 µM | NCI-H226 > 100 µM | NCI-H23 > 100 µM | NCI-H460 > 100 µM | OVCAR-4 > 100 µM | OVCAR-5 > 100 µM | OVCAR-8 > 100 µM | SF-295 > 100 µM | SK-MEL-28 > 100 µM | SNB-19 31.6 µM | SR > 100 µM | UACC-62 > 100 µM

CC(C)CC(=O)OC[n+]1ccc(-c2c(COC(=O)NC(C)C)c(COC(=O)NC(C)C)c3n2CCC3)cc1
inactive: CCRF-CEM 64.4 µM | DU-145 > 100 µM | EKVX > 100 µM | HCT-116 > 100 µM | HOP-62 > 100 µM | HOP-92 > 100 µM | HT-29 > 100 µM | Malme-3M > 100 µM | NCI-H226 > 100 µM | NCI-H23 75.2 µM | NCI-H460 76.9 µM | OVCAR-4 > 100 µM | OVCAR-5 > 100 µM | OVCAR-8 > 100 µM | SF-295 > 100 µM | SK-MEL-28 > 100 µM | SNB-19 > 100 µM | SR 6.19 µM | UACC-62 83.8 µM
